According to patent US9604988B2, “Agent for treating or inhibiting recurrence of acute myeloid leukemia” (RIKEN, priority 2012, dated 2017):

How the values were obtained:
HCK = HCK (Homo sapiens, UniProt P08631); assay: HCK kinase inhibition; type: biochemical
FLT3-ITD = molecular target: T1, FLT3-ITD (Homo sapiens, UniProt P36888, ITD); assay: FLT3-ITD kinase inhibition; type: biochemical
T1 sequence (P36888 27-993): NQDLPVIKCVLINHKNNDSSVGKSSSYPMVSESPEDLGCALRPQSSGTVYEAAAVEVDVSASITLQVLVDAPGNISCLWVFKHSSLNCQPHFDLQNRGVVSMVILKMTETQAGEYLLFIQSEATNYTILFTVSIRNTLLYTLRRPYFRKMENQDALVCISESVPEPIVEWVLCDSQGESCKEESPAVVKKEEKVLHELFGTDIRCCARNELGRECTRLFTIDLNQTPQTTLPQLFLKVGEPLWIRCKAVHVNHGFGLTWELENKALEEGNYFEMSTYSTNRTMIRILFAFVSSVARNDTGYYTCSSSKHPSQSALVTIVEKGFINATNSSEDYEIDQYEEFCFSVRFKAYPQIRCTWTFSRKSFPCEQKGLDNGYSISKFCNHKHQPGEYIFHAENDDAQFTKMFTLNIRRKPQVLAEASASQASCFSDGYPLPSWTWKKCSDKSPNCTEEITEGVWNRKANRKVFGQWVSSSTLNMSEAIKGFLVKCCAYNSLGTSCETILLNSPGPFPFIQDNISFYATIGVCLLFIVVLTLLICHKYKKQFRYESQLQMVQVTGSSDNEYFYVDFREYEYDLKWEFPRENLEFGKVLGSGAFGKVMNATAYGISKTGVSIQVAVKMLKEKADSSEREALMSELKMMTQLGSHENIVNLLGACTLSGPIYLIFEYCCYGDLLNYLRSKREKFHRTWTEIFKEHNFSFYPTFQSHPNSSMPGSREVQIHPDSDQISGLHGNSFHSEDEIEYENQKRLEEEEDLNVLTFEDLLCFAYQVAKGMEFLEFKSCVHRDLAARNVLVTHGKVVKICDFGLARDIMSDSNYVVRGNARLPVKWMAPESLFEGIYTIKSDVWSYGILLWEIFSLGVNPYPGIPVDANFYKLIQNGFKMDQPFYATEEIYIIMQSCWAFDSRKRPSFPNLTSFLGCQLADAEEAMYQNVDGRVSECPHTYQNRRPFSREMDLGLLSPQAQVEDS

hERG = hERG (Homo sapiens, UniProt Q12809); assay: hERG inhibition (automated patch-clamp); type: cell-based
Chain of hERG (Q12809 whole entry): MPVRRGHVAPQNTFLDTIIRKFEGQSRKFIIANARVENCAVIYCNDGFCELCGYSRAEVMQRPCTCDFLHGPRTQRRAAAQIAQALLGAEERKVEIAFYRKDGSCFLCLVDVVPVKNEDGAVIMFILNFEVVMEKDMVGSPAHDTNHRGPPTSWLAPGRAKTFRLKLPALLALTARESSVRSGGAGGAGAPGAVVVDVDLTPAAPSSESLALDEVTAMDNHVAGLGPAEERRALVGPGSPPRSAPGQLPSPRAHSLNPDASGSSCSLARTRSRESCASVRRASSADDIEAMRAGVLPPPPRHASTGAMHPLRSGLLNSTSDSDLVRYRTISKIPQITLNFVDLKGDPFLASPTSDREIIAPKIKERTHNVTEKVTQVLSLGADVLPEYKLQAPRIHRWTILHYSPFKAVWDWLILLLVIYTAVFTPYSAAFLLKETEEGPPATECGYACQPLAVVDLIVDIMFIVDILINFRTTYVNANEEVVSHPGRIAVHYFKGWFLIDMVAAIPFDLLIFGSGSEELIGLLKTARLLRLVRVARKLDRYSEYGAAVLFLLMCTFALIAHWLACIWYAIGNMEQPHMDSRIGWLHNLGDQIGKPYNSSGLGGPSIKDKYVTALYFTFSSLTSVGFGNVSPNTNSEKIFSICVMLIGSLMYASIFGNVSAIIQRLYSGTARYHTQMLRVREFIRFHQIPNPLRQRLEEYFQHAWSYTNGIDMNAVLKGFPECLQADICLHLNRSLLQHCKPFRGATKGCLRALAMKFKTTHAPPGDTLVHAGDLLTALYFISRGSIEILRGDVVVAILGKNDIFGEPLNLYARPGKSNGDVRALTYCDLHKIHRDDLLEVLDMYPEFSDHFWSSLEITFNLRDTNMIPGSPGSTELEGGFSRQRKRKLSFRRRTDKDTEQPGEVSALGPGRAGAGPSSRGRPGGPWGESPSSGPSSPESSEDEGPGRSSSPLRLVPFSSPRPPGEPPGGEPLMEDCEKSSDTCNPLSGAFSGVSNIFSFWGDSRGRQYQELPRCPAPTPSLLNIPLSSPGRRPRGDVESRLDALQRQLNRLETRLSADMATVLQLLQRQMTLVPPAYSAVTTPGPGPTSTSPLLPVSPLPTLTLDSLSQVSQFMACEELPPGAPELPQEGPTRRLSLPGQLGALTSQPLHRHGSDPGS

Chain of HCK (P08631 whole entry): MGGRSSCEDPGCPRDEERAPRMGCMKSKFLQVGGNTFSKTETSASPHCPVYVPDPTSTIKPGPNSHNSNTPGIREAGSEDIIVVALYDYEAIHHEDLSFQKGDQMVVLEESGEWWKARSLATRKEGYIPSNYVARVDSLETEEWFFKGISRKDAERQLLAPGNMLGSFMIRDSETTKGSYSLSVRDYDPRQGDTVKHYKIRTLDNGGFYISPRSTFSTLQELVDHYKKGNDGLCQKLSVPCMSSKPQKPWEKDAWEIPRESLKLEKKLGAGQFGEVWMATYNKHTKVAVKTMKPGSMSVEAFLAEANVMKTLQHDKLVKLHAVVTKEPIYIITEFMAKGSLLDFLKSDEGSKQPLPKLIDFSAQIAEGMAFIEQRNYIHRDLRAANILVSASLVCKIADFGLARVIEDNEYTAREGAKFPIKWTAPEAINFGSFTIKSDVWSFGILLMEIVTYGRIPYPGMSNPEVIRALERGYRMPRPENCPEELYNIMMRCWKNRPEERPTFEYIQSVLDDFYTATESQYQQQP

IC50 (HCK) [nM]	IC50 (FLT3-ITD) [nM]	Compound	inhibition at 10 µM (hERG) [%]
20	190	Nc1ncnc2c1c(-c1ccc(Oc3ccccc3)cc1)nn2[C@H]1CC[C@H](NC(=O)c2cccnc2)CC1 [Example 22, N-((trans)-4-(4-amino-3-(4-phenoxyphenyl)-1H-pyrazolo[3,4-d]pyrimidin-1-yl)cyclohexyl)nicotinamide]	50
1.6	609	COc1cc(-c2cn([C@H]3CC[C@H](N4CCN(C)CC4)CC3)c3ncnc(N)c23)ccc1NC(=O)c1cc2ccccc2n1C [Example 27, N-(4-(4-amino-7-((trans)-4-(4-methylpiperazin-1-yl)cyclohexyl)-7H-pyrrolo[2,3-d]pyrimidin-5-yl)-2-methoxyphenyl)-1-methyl-1H-indole-2-carboxamide]	39.3
1.8	1340	COc1cc(-c2nn([C@H]3CC[C@H](N4CCn5c(C)nnc5C4)CC3)c3ncnc(N)c23)ccc1NC(=O)c1cc2ccccc2n1C [Example 29, N-(4-(4-amino-1-((trans)-4-(3-methyl-5,6-dihydro[1,2,4]triazolo[4,3-a]pyrazin-7(8H)-yl)cyclohexyl)-1H-pyrazolo[3,4-d]pyrimidin-3-yl)-2-methoxyphenyl)-1-methyl-1H-indole-2-carboxamide]	17.1
7.7	3330	COc1cc(-c2cn([C@H]3CC[C@@H](N4CCn5nc(C)cc5C4)CC3)c3ncnc(N)c23)ccc1NC(=O)c1cc2ccccc2n1C [Example 37, N-(4-(4-amino-7-((cis)-4-(2-methyl-6,7-dihydropyrazolo[1,5-a]pyrazin-5(4H)-yl)cyclohexyl)-7H-pyrrolo[2,3-d]pyrimidin-5-yl)-2-methoxyphenyl)-1-methyl-1H-indole-2-carboxamide]	
2.8	6580	COc1cc(-c2cn([C@H]3CC[C@@H](N4CCn5nccc5C4)CC3)c3ncnc(N)c23)ccc1NC(=O)c1cc2ccccc2n1C [Example 38, N-(4-(4-amino-7-((cis)-4-(6,7-dihydropyrazolo[1,5-a]pyrazin-5(4H)-yl)cyclohexyl)-7H-pyrrolo[2,3-d]pyrimidin-5-yl)-2-methoxyphenyl)-1-methyl-1H-indole-2-carboxamide]	
4	4620	COc1cc(-c2cn([C@H]3CC[C@H](N4CCn5c(C)cnc5C4)CC3)c3ncnc(N)c23)ccc1NC(=O)c1cc2ccccc2n1C [Example 39, N-(4-(4-amino-7-((trans)-4-(3-methyl-5,6-dihydroimidazo[1,2-a]pyrazin-7(8H)-yl)cyclohexyl)-7H-pyrrolo[2,3-d]pyrimidin-5-yl)-2-methoxyphenyl)-1-methyl-1H-indole-2-carboxamide]	
4	16	COCCN1CCN([C@H]2CC[C@H](n3cc(-c4ccc(Oc5ccccc5)cc4)c4c(N)ncnc43)CC2)CC1 [Example 40, 7-((trans)-4-(4-(2-Methoxyethyl)pyrazin-1-yl)cyclohexyl)-5-(4-phenoxyphenyl)-7H-pyrrolo[2,3-d]pyrimidin-4-amine]	96
6.5	12	Nc1ncnc2c1c(-c1ccc(Oc3ccccc3)cc1)cn2[C@H]1CC[C@@H](NCc2ccccn2)CC1 [Example 47, 5-(4-Phenoxyphenyl)-7-((cis)-4-((pyridin-2-ylmethyl)amino)cyclohexyl)-7H-pyrrolo[2,3-d]pyrimidin-4-amine]	99
0.53	23	Cn1nccc1CN[C@H]1CC[C@@H](n2cc(-c3ccc(Oc4ccccc4)cc3)c3c(N)ncnc32)CC1 [Example 49, 7-((cis)-4-(((1-Methyl-1H-pyrazol-5-yl)methyl)amino)cyclohexyl)-5-(4-phenoxyphenyl)-7H-pyrrolo[2,3-d]pyrimidin-4-amine]	99
23	43	Nc1ncnc2c1c(-c1ccc(Oc3ccccc3)cc1)cn2[C@H]1CC[C@H](N2CCn3c(nnc3C(F)(F)F)C2)CC1 [Example 58, 5-(4-Phenoxyphenyl)-7-((trans)-4-(3-(trifluoromethyl)-5,6-dihydro[1,2,4]triazolo[4,3-a]pyrazin-7(8H)-yl)cyclohexyl)-7H-pyrrolo[2,3-d]pyrimidin-4-amine]	
3	55	CN1CCN([C@H]2CC[C@H](n3nc(-c4ccc(Oc5ccccc5)cc4)c4c(N)ncnc43)CC2)CC1 [Example 59, 1-((trans)-4-(4-Methylpiperazin-1-yl)cyclohexyl)-3-(4-phenoxyphenyl)-1H-pyrazolo[3,4-d]pyrimidin-4-amine]	

Compound	IC50 (HCK) [nM]	IC50 (FLT3-ITD) [nM]	inhibition at 10 µM (hERG) [%]
CN1C2CCC1CN([C@H]1CC[C@H](n3nc(-c4ccc(NC(=O)c5ccccn5)cc4)c4c(N)ncnc43)CC1)C2 [Example 21, N-(4-(4-amino-1-((1r,4r)-4-(8-methyl-3,8-diazabicyclo[3.2.1]octan-3-yl)cyclohexyl)-1H-pyrazolo[3,4-d]pyrimidin-3-yl)phenyl)picolinamide]	4.7	1180	48
CN1C2CCC1CN([C@H]1CC[C@H](n3nc(-c4ccc(NC(=O)c5cc6ccccc6n5C)cc4)c4c(N)ncnc43)CC1)C2 [Example 24, N-(4-(4-amino-1-((1r,4r)-4-(8-methyl-3,8-diazabicyclo[3.2.1]octan-3-yl)cyclohexyl)-1H-pyrazolo[3,4-d]pyrimidin-3-yl)phenyl)-1-methyl-1H-indole-2-carboxamide]	9.73	3330	64
CN1C2CCC1CC(N1CCC(n3nc(-c4ccc(NC(=O)c5cc6ccccc6n5C)cc4)c4c(N)ncnc43)CC1)C2 (stereo not drawn) [Example 25, N-(4-(4-amino-1-(1-(8-methyl-8-azabicyclo[3.2.1]octan-3-yl)piperidin-4-yl)-1H-pyrazolo[3,4-d]pyrimidin-3-yl)phenyl)-1-methyl-1H-indole-2-carboxamide]	2.05	2780	42
Nc1ncnc2c1c(-c1ccc(Oc3ccccc3)cc1)cn2[C@H]1CC[C@H](N2CCN(CCO)CC2)CC1 [Example 41, 2-(4-((trans)-4-(4-Amino-5-(4-phenoxyphenyl)-7H-pyrrolo[2,3-d]pyrimidin-7-yl)cyclohexyl)piperazin-1-yl)ethan-1-ol]		21	93
CC(C)N1CCN([C@H]2CC[C@H](n3cc(-c4ccc(Oc5ccccc5)cc4)c4c(N)ncnc43)CC2)CC1 [Example 42, 7-((trans)-4-(4-Isopropylpiperazin-1-yl)cyclohexyl)-5-(4-phenoxyphenyl)-7H-pyrrolo[2,3-d]pyrimidin-4-amine]		22	88
Nc1ncnc2c1c(-c1ccc(Oc3ccccc3)cc1)cn2[C@H]1CC[C@H](NCc2ccncc2)CC1 [Example 44, 5-(4-phenoxyphenyl)-7-((trans)-4-((pyridin-4-ylmethyl)amino)cyclohexyl)-7H-pyrrolo[2,3-d]pyrimidin-4-amine]		15	93
Nc1ncnc2c1c(-c1ccc(Oc3ccccc3)cc1)cn2[C@H]1CC[C@@H](N[C@H]2CCNC2=O)CC1 [Example 53, (S)-3-(((cis)-4-(4-amino-5-(4-phenoxyphenyl)-7H-pyrrolo[2,3-d]pyrimidin-7-yl)cyclohexyl)amino)pyrrolidin-2-one]		30	97
